From US8129371B2, “Thienopyrimidine and pyrazolopyrimidine compounds and their use as mTOR kinase and PI3 kinase inhibitors” (Wyeth LLC, priority 2007, dated 2012)
Like-named read-outs stand apart in the source and are kept apart here.

What was measured:
Human mTOR (FLAG-TOR) = target: T1, Human mTOR (FLAG-TOR) (Homo sapiens, UniProt P42345); test: Human mTOR kinase assay with purified enzyme, DELFIA format; type: biochemical
T1 construct: FLAG
Procedure, shortened: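 Purified FLAG-mTOR in HEPES pH 7.4 buffer with 10 mM MnCl2 was preincubated with inhibitor and reacted 2 h at room temperature with His6-S6K substrate, then stopped with EDTA/EGTA. Phospho-T389 S6K detected by DELFIA with Eu-labelled antibody (40 ng/mL) after plate capture; inhibition computed from signal.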

prostate line LNCap = test: In vitro cell culture growth assay (MTS), LNCap; type: cell-based; conditions: Homo sapiens, LNCaP, 72 h, LNCap cells, three days after drug treatment
Procedure, shortened: (§1)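 Growth is reported as percent of vehicle-treated control grown in the same plate, with viability determined by metabolic conversion of MTS dye and absorbance read at 490 nm. Compounds were applied one day after plating and left for three days.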

PI3K [1] = target: T2, PI3K (Homo sapiens, UniProt P48736); test: Fluorescence polarization assay for PI3K; type: biochemical; conditions: read-out: PI3 Kinase γ IC50
T2 construct: PI3 Kinase γ IC50; other: PI3 Kinase γ; other: PI3 Kinase γ isoform, fluorescence polarization
T2 sequence (P48736 whole entry, canonical isoform): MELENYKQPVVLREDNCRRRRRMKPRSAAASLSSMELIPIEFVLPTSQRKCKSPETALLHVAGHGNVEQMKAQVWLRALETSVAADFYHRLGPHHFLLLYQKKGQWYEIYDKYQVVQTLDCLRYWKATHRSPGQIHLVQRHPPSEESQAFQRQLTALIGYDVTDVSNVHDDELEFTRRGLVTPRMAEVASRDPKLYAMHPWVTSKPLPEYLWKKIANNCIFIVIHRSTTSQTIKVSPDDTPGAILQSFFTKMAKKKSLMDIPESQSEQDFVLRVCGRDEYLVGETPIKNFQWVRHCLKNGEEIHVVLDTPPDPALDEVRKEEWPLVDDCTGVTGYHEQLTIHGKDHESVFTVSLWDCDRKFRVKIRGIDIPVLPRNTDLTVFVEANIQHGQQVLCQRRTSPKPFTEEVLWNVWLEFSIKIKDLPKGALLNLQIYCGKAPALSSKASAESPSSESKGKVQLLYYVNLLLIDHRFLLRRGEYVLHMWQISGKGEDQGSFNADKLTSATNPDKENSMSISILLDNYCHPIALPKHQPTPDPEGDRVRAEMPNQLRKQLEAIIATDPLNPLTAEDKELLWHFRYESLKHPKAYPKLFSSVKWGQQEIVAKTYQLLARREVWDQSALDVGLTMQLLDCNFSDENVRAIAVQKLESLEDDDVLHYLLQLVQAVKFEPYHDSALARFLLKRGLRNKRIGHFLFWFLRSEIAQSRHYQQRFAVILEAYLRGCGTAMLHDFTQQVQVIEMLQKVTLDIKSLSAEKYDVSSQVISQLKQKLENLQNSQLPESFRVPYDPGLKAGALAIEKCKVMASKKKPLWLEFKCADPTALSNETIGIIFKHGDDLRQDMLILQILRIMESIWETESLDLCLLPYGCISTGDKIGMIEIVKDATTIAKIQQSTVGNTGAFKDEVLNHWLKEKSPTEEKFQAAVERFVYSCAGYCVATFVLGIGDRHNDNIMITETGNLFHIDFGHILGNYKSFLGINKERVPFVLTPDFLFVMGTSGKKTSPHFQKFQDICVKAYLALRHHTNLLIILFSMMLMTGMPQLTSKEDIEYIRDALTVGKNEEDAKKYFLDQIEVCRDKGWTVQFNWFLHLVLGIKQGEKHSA
Procedure, shortened: (§2)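 PI3K was preincubated with compound (final DMSO 1%), and the reaction was started with PIP2/ATP substrate and run 30–60 min. It was stopped with a detector mix giving 10 nM red probe and 70 nM GST-GRP.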

PI3K [2] = target: T3, PI3K (Homo sapiens, UniProt P42336); test: Fluorescence polarization assay for PI3K; type: biochemical; conditions: read-out: PI3 Kinase α IC50
T3 construct: PI3 Kinase α IC50; other: PI3 Kinase α; other: PI3 Kinase α isoform, fluorescence polarization
T3 sequence (P42336 whole entry, canonical isoform): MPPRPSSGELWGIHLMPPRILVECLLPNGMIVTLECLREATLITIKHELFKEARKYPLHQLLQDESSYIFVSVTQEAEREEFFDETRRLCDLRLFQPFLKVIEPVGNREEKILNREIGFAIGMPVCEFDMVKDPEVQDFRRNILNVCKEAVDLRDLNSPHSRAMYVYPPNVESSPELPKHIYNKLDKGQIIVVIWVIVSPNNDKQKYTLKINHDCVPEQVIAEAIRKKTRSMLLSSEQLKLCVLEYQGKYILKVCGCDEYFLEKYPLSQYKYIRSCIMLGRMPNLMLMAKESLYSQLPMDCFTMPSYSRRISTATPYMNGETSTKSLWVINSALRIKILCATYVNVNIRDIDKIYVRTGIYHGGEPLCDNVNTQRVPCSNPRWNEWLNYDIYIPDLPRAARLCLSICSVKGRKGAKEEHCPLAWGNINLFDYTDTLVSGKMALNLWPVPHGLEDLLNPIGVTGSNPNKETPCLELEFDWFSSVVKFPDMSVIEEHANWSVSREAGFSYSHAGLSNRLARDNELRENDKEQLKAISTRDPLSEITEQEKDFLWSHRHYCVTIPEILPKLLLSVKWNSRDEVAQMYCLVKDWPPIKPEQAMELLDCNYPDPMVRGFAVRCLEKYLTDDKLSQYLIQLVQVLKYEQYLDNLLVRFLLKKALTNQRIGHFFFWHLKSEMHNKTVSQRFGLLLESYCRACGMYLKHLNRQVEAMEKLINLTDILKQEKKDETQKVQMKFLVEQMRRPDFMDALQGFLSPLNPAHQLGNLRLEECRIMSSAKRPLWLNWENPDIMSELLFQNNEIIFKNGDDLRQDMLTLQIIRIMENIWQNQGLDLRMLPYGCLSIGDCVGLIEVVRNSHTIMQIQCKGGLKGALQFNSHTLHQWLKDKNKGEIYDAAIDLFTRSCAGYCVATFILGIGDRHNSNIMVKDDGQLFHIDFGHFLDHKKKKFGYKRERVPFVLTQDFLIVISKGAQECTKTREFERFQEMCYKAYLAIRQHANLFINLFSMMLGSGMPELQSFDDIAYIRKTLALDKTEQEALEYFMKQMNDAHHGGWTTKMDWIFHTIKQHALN
Procedure, shortened: as §2

breast line MDA468 = test: In vitro cell culture growth assay (MTS), MDA468; type: cell-based; conditions: Homo sapiens, 72 h, MDA468 cells, three days after drug treatment
Procedure, shortened: as §1

[3] = purified human mTOR enzyme, DELFIA format
[4] = PI3 Kinase γ isoform, fluorescence polarization
[5] = PI3 Kinase α isoform, fluorescence polarization

Row | Compound | IC50 (Human mTOR (FLAG-TOR)) [nM] | IC50 (prostate line LNCap) [nM] | IC50 (PI3K [1]; PI3 Kinase γ) [nM] | IC50 (PI3K [2]; PI3 Kinase α) [nM] | IC50 (breast line MDA468) [nM] | IC50 (Human mTOR (FLAG-TOR); [3]) [nM] | IC50 (PI3K [1]; [4]) [nM] | IC50 (PI3K [2]; [5]) [nM]
1 | CCn1ncc2c(N3CC4CCC(C3)O4)nc(-c3ccc(NC(=O)NCCNC)cc3)nc21 [Example 174, 1-{4-[1-ethyl-4-(8-oxa-3-azabicyclo[3.2.1]oct-3-yl)-1H-pyrazolo[3,4-d]pyrimidin-6-yl]phenyl}-3-[2-(methylamino)ethyl]urea] | 4.7 | 190 | 4980 | 232 | 700 | – | – | –
2 | CN(C)CCn1ncc2c(N3CC4CCC(C3)O4)nc(-c3ccc(NC(=O)Nc4cccnc4)cc3)nc21 [Example 157, 1-(4-{1-[2-(dimethylamino)ethyl]-4-(8-oxa-3-azabicyclo[3.2.1]oct-3-yl)-1H-pyrazolo[3,4-d]pyrimidin-6-yl}phenyl)-3-pyridin-3-ylurea] | 2.7 | 50 | 3120 | 235 | 220 | – | – | –
3 | CN1CCN(Cc2cc3nc(-c4ccc(NC(=O)NN(C)C)cc4)nc(N4CC5CCC(C4)O5)c3s2)CC1 [Example 425, 2,2-dimethyl-N-(4-{6-[(4-methylpiperazin-1-yl)methyl]-4-(8-oxa-3-azabicyclo[3.2.1]oct-3-yl)thieno[3,2-d]pyrimidin-2-yl}phenyl)hydrazinecarboxamide] | – | 19000 | – | – | 23000 | 545 | > 10000 | 5530
4 | c1cc2cc(-c3nc(N4CC5CCC(C4)O5)c4sccc4n3)ccc2[nH]1 [Example 419, 2-(1H-indol-5-yl)-4-(8-oxa-3-azabicyclo[3.2.1]oct-3-yl)thieno[3,2-d]pyrimidine] | – | 1350 | – | – | 7900 | 22 | > 10000 | 8620
5 | COCC(COC)n1ncc2c(N3CC4CCC(C3)O4)nc(-c3ccc(NC(=O)NC4CC4)cc3)nc21 [Example 321, 1-cyclopropyl-3-(4-{1-[2-methoxy-1-(methoxymethyl)ethyl]-4-(8-oxa-3-azabicyclo[3.2.1]oct-3-yl)-1H-pyrazolo[3,4-d]pyrimidin-6-yl}phenyl)urea] | – | 170 | – | – | 1050 | 10.4 | > 10000 | 3810
6 | CCn1ncc2c(N3CC4CCC(C3)O4)nc(-c3ccc(NC(=O)NCCC(=O)N4CCN(C)CC4)cc3)nc21 [Example 277, 1-{4-[1-ethyl-4-(8-oxa-3-azabicyclo[3.2.1]oct-3-yl)-1H-pyrazolo[3,4-d]pyrimidin-6-yl]phenyl}-3-[3-(4-methylpiperazin-1-yl)-3-oxopropyl]urea] | 110 | 3500 | > 10000 | 2950 | 8000 | – | – | –
7 | O=C(Nc1ccc(CO)cc1)Nc1ccc(-c2nc(N3CC4CCC(C3)O4)c3cnn(CCF)c3n2)cc1 [Example 250, 1-{4-[1-(2-fluoroethyl)-4-(8-oxa-3-azabicyclo[3.2.1]oct-3-yl)-1H-pyrazolo[3,4-d]pyrimidin-6-yl]phenyl}-3-[4-(hydroxymethyl)phenyl]urea] | 0.086 | < 1 | 952 | 34 | 4 | – | – | –
8 | CN1CCN(C2CCC(n3ncc4c(N5CC6CCC(C5)O6)nc(-c5ccc(NC(=O)Nc6ccccc6)cc5)nc43)CC2)CC1 (centres unmarked) [Example 373, 1-(4-{1-[4-(4-methylpiperazin-1-yl)cyclohexyl]-4-(8-oxa-3-azabicyclo[3.2.1]oct-3-yl)-1H-pyrazolo[3,4-d]pyrimidin-6-yl}phenyl)-3-phenylurea] | – | 220 | – | – | 200 | 0.385 | 1120 | 217
9 | CCNC(=O)Nc1ccc(-c2nc(N3CC4CCC(C3)O4)c3cnn(C4CCN(C(=O)OC(C)(C)C)CC4)c3n2)cc1 [Example 20, tert-butyl4-[6-{4-[(ethylcarbamoyl)amino]phenyl}-4-(8-oxa-3-azabicyclo[3.2.1]oct-3-yl)-1H-pyrazolo[3,4-d]pyrimidin-1-yl]piperidine-1-carboxylate] | 0.47 | 27 | > 10000 | 2350 | 98 | – | – | –
10 | Cn1ncc2c(N3CC4CCC(C3)O4)nc(-c3ccc(NC(=O)Nc4ccncc4)cc3)nc21 [Example 57, 1-{4-[1-methyl-4-(8-oxa-3-azabicyclo[3.2.1]oct-3-yl)-1H-pyrazolo[3,4-d]pyrimidin-6-yl]phenyl}-3-pyridin-4-ylurea] | 0.18 | 0.8 | 782 | 162 | 9 | – | – | –
11 | CN1CCN(c2ccc(NC(=O)Nc3ccc(-c4nc(N5CC6CCC(C5)O6)c5cnn(CC(F)(F)F)c5n4)cc3)cn2)CC1 [Example 262, 1-[6-(4-methylpiperazin-1-yl)pyridin-3-yl]-3-{4-[4-(8-oxa-3-azabicyclo[3.2.1]oct-3-yl)-1-(2,2,2-trifluoroethyl)-1H-pyrazolo[3,4-d]pyrimidin-6-yl]phenyl}urea] | 0.515 | 1 | 1360 | 191 | 5 | – | – | –
12 | CNC(=O)Nc1ccc(-c2nc(N3CC4CCC(C3)O4)c3cnn(C4CCN(Cc5cccnc5)CC4)c3n2)cc1 [Example 27, 1-methyl-3-(4-{4-(8-oxa-3-azabicyclo[3.2.1]oct-3-yl)-1-[1-(pyridin-3-ylmethyl)piperidin-4-yl]-1H-pyrazolo[3,4-d]pyrimidin-6-yl}phenyl)urea] | 0.47 | 0.8 | > 10000 | 677 | 27 | – | – | –
13 | COC(=O)N1CCC(n2ncc3c(N4C5CCC4COC5)nc(-c4ccc(NC(=O)Nc5ccc(OCCN(C)C)cc5)cc4)nc32)CC1 [Example 368, methyl 4-[6-{4-[({4-[2-(dimethylamino)ethoxy]phenyl}carbamoyl)amino]phenyl}-4-(3-oxa-8-azabicyclo[3.2.1]oct-8-yl)-1H-pyrazolo[3,4-d]pyrimidin-1-yl]piperidine-1-carboxylate] | – | 1 | – | – | 4 | 0.885 | 2000 | 1160
14 | COC(=O)N1CCC(n2ncc3c(N4CC5CCC(C4)O5)nc(-c4ccc(N)cc4)nc32)CC1 [Example 120, methyl 4-[6-(4-aminophenyl)-4-(8-oxa-3-azabicyclo[3.2.1]oct-3-yl)-1H-pyrazolo[3,4-d]pyrimidin-1-yl]piperidine-1-carboxylate] | 69 | 950 | > 10000 | 7920 | 6900 | – | – | –
15 | O=C(Nc1ccc(-c2nc(N3CC4CCC(C3)O4)c3cnn(C4CCC5(CC4)OCCO5)c3n2)cc1)Nc1cccnc1 [Example 376, 1-{4-[1-(1,4-dioxaspiro[4.5]dec-8-yl)-4-(8-oxa-3-azabicyclo[3.2.1]oct-3-yl)-1H-pyrazolo[3,4-d]pyrimidin-6-yl]phenyl}-3-pyridin-3-ylurea] | – | 1 | – | – | 5 | 0.125 | 4060 | 270
16 | CCn1ncc2c(N3CC4CCC(C3)O4)nc(-c3ccc(NC(=O)NCCOCCN)cc3)nc21 [Example 225, 1-[2-(2-aminoethoxy)ethyl]-3-{4-[1-ethyl-4-(8-oxa-3-azabicyclo[3.2.1]oct-3-yl)-1H-pyrazolo[3,4-d]pyrimidin-6-yl]phenyl}urea] | 26.5 | 2400 | > 10000 | 1390 | 4000 | – | – | –
